Counter-ions that a name gives are not always drawn.

The assay has as its system MC3T3-E1 cells. Put plainly: ALP activity, differentiation of osteoblast cells. In kind it is cell-based. The following applies: Mus musculus, MC3T3-E1, 144 h; MC3T3E1 cells treated with 10 μM compound and OF; relates activity to OF-only group (100%); higher = more efficacious. The procedure:
To examine the effects of the inventive indenone derivatives on the differentiation and activation of osteoblast cells, the activity and expression of alkaline phosphatase (ALP), a marker for the differentiation of osteoblast cells, and the bone nodule formation using a mouse derived osteoblast-like cells, MC3T3-E1 (ATCC, Japan) or a primary mouse calvaria derived preosteoblastic cells were observed.
MC3T3-E 1 cells were seeded in a medium containing osteogenic factors (OF) such as ascorbic acids and β-glycerophosphates (b-GP), and each compound of Examples was added thereto at a concentration of 0.1, 1 and 10 μM. The cells were incubated for 6 days (MC3T3-E1 cells) or 7 days (primary mouse calvaria derived preosteoblastic cells) in a 37° C. CO2 incubator. Then, the culture medium was replaced with a fresh medium together with the test compound every two or three days. On the last day, the medium was centrifuged to remove the supernatant, and the cells were washed with PBS. The washed cells were subjected to a 3-cycle freege-thaw treatment using a −70° C. deep freezer to allow enzymes elute in a lysis buffer. The lysed protein was quantified, followed by measurement of ALP activity using 4-nitrophenylphosphate.
Further, a group treated only with DMSO or OF was tested for ALP activities for comparison.
With `CS(=O)(=O)N1CCN(CCOc2ccc3c(c2)C(=O)C(c2ccc(F)c(F)c2)=C3c2ccc(Cl)cc2)CC1` [Example 53, 3-(4-chlorophenyl)-2-(3,4-difluorophenyl)-6-(2-(4-(methylsulfonyl)piperazin-1-yl)ethoxy)-1H-inden-1-one hydrochloride salt], the activity at 10 µM worked out at 27%.
As for `O=C1C(c2ccc(C(F)(F)F)cc2)=C(c2ccc(C(F)(F)F)cc2)c2ccc(OCCN3CCOCC3)cc21` [Example 33, 6-(2-morpholinoethoxy)-2,3-bis(4-(trifluoromethyl)phenyl)-1H-inden-1-one], the activity at 10 µM worked out at 65%.
Take `O=C1C(c2ccc(F)nc2)=C(c2ccccc2)c2ccc(OCCN3CCOCC3)cc21` [Example 9, 6-(2-morpholinoethoxy)-2-(6-fluoropyridin-3-yl)-3-phenyl-1H-inden-1-one]: the activity at 10 µM amounted to 87%.
Next, `CC(C)(C)OC(=O)N1CCC(CCOc2ccc3c(c2)C(=O)C(c2cccnc2)=C3c2cc(F)cc(F)c2)CC1` [Example 69, tert-butyl 4-(2-(3-(3,5-difluorophenyl)-1-oxo-2-(pyridin-3-yl)-1H-inden-6-yloxy)ethyl)piperidine-1-carboxylate]: 72%.
Take `O=C1C(c2ccc(F)c(F)c2)=C(c2cc(F)cc(F)c2)c2ccc(OCCN3CCOCC3)cc21` [Example 38, 6-(2-morpholinoethoxy)-2-(3,4-difluorophenyl)-3-(3,5-difluorophenyl)-1H-inden-1-one]: the activity at 10 µM turned out to be 77%.
Regarding `CC(C)(C)OC(=O)N1CCN(CCCOc2ccc3c(c2)C(=O)C(c2cccnc2)=C3c2ccccc2)CC1` [Example 55, tert-Butyl 4-(3-(1-oxo-3-phenyl-2-(pyridin-3-yl)-1H-inden-6-yloxy)propyl)piperazine-1-carboxylate], the activity at 10 µM was 129%.
Turning to `Cc1ccc(C2=C(c3ccccc3)c3ccc(OCCN4CCOCC4)cc3C2=O)cc1` [Example 11, 6-(2-morpholinoethoxy)-3-phenyl-2-p-tolyl-1H-inden-1-one], the activity at 10 µM stood at 649%.
For `CS(=O)(=O)N1CCC(CCOc2ccc3c(c2)C(=O)C(c2cnc4ccccc4c2)=C3c2cc(F)cc(F)c2)CC1` [Example 101, 3-(3,5-difluorophenyl)-6-{2-[1-(methylsulfonyl)piperidin-4-yl]ethoxy}-2-(quinolin-3-yl)-1H-inden-1-one hydrochloride salt], the activity at 10 µM amounted to 216%.
`COc1ccc(C2=C(c3cc(F)cc(F)c3)c3ccc(OCCCN4CCN(S(C)(=O)=O)CC4)cc3C2=O)cc1F` [Example 106, 2-(3-fluoro-4-methoxyphenyl)-3-(3,5-difluorophenyl)-6-{3-[4-(methylsulfonyl)piperazin-1-yl]propoxy}-1H-inden-1-one hydrochloride salt]: the activity at 10 µM is 133%.
Next, `O=C1C(c2ccccn2)=C(c2ccccc2)c2ccc(OCCN3CCOCC3)cc21` [Example 83, 6-(2-morpholinoethoxy)-3-phenyl-2-(pyridin-2-yl)-1H-inden-1-one]: 18%; `CS(=O)(=O)N1CCN(CCOc2ccc3c(c2)C(=O)C(c2cncnc2)=C3c2cc(F)cc(F)c2)CC1` [Example 52, 3-(3,5-difluorophenyl)-6-(2-(4-(methylsulfonyl)piperazin-1-yl)ethoxy)-2-(pyrimidin-5-yl)-1H-inden-1-one hydrochloride salt]: 50%; `CS(=O)(=O)N1CCN(CCOc2ccc3c(c2)C(=O)C(c2cccnc2)=C3c2ccccc2)CC1` [Example 45, 6-[2-(4-(methylsulfonyl)piperazin-1-yl)ethoxy]-3-phenyl-2-(pyridin-3-yl)-1H-inden-1-one hydrochloride salt]: 192%.
As to `Cc1ccc(C2=C(c3ccc(F)cc3F)c3ccc(OCCC4CCN(S(C)(=O)=O)CC4)cc3C2=O)cc1` [Example 120, 3-(2,4-difluorophenyl)-6-{2-[1-(methylsulfonyl)piperidin-4-yl]ethoxy}-2-p-tolyl-1H-inden-1-one], the activity at 10 µM was 169%.
Next, `COc1ccc(C2=C(c3ccccc3)c3ccc(OCCN4CCOCC4)cc3C2=O)cn1` [Example 6, 6-(2-morpholinoethoxy)-2-(6-methoxypyridin-3-yl)-3-phenyl-1H-inden-1-one]: 63%.
Take `CS(=O)(=O)N1CCN(CCCOc2ccc3c(c2)C(=O)C(c2cnc4ccccc4c2)=C3c2cc(F)cc(F)c2)CC1` [Example 104, 3-(3,5-difluorophenyl)-6-{3-[4-(methylsulfonyl)piperazin-1-yl]propoxy}-2-(quinolin-3-yl)-1H-inden-1-one hydrochloride salt]: the activity at 10 µM amounted to 124%.
On to `Cc1ccc(C2=C(c3cc(F)cc(F)c3)c3ccc(OCCCN4CCN(S(C)(=O)=O)CC4)cc3C2=O)cc1` [Example 105, 3-(3,5-Difluorophenyl)-6-{3-[4-(methylsulfonyl)piperazin-1-yl]propoxy}-2-p-tolyl-1H-inden-1-one hydrochloride salt], for which the activity at 10 µM came out at 99%.
With `O=C1C(c2ccc(C(F)(F)F)cc2)=C(c2ccc(F)cc2)c2ccc(OCCN3CCOCC3)cc21` [Example 27, 6-(2-morpholinoethoxy)-2-(4-(trifluoromethyl)phenyl)-3-(4-fluorophenyl)-1H-inden-1-one], the activity at 10 µM came out at 75%.
Next, `O=C1C(c2cccnc2)=C(c2ccc(F)cc2F)c2ccc(OCCN3CCOCC3)cc21` [Example 82, 6-(2-morpholinoethoxy)-3-(2,4-difluorophenyl)-2-(pyridin-3-yl)-1H-inden-1-one]: 178%; `CS(=O)(=O)N1CCN(CCOc2ccc3c(c2)C(=O)C(c2cnc4ccccc4c2)=C3c2ccc(F)cc2F)CC1` [Example 119, 3-(2,4-difluorophenyl)-6-{2-[4-(methylsulfonyl)piperazin-1-yl]ethoxy}-2-(quinolin-3-yl)-1H-inden-1-one]: 170%; `O=C1C(c2ccc(C(F)(F)F)cc2)=C(c2ccccc2)c2ccc(OCCN3CCOCC3)cc21` [Example 13, 6-(2-morpholinoethoxy)-2-(4-(trifluoromethyl)phenyl)-3-phenyl-1H-inden-1-one]: 151%.
For `CC(C)(C)OC(=O)N1CCN(CCOc2ccc3c(c2)C(=O)C(c2cccnc2)=C3c2ccccc2)CC1` [Example 44, tert-butyl 4-(2-(1-oxo-3-phenyl-2-(pyridin-3-yl)-1H-inden-6-yloxy)ethyl)piperazine-1-carboxylate], the activity at 10 µM worked out at 710%.
As for `COc1ccc(C2=C(c3ccc(F)cc3F)c3ccc(OCCN4CCOCC4)cc3C2=O)cc1F` [Example 126, 2-(3-fluoro-4-methoxyphenyl)-3-(2,4-difluorophenyl)-6-[2-(morpholin-4-yl)ethoxy]-1H-inden-1-one], the activity at 10 µM was determined as 73%.
With `O=C1C(c2ccc3ccccc3c2)=C(c2ccccc2)c2ccc(OCCN3CCOCC3)cc21` [Example 16, 6-(2-morpholinoethoxy)-2-(naphthalen-3-yl)-3-phenyl-1H-inden-1-one], the activity at 10 µM came to 713%.
In the case of `CC(=O)Nc1cccc(C2=C(c3ccccc3)c3ccc(OCCN4CCOCC4)cc3C2=O)c1` [Example 14, N-(3-(6-(2-morpholinoethoxy)-1-oxo-3-phenyl-1H-inden-2-yl)phenyl)acetamide] it was 131%; in that of `CS(=O)(=O)N1CCN(CCOc2ccc3c(c2)C(=O)C(c2ccc(F)c(F)c2)=C3c2ccc(C(F)(F)F)cc2)CC1` [Example 48, 2-(3,4-difluorophenyl)-6-(2-(4-(methylsulfonyl)piperazin-1-yl)ethoxy)-3-(4-(trifluoromethyl)phenyl)-1H-inden-1-one], 67%.
With `O=C1C(c2ccc(Oc3ccccc3)cc2)=C(c2ccccc2)c2ccc(OCCN3CCOCC3)cc21` [Example 21, 6-(2-morpholinoethoxy)-2-(4-phenoxyphenyl)-3-phenyl-1H-inden-1-one], the activity at 10 µM turned out to be 130%.
`CS(=O)(=O)N1CCN(CCOc2ccc3c(c2)C(=O)C(c2ccc(F)c(F)c2)=C3c2cc(F)cc(F)c2)CC1` [Example 51, 2-(3,4-difluorophenyl)-3-(3,5-difluorophenyl)-6-(2-(4-(methylsulfonyl)piperazin-1-yl)ethoxy)-1H-inden-1-one hydrochloride salt]: the activity at 10 µM stood at 33%.
With `Cn1ccc2cc(C3=C(c4ccccc4)c4ccc(OCCN5CCOCC5)cc4C3=O)ccc21` [Example 87, 2-(1-methyl-1H-indol-5-yl)-6-(2-morpholinoethoxy)-3-phenyl-1H-inden-1-one], the activity at 10 µM was 71%.
As for `O=C1C(c2cccnc2)=C(c2cc(F)cc(F)c2)c2ccc(OCCN3CCS(=O)(=O)CC3)cc21` [Example 74, 6-[2-(1,1-dioxothiomorpholin-4-yl)ethoxy]-3-(3,5-difluorophenyl)-2-(pyridin-3-yl)-1H-inden-1-one hydrochloride salt], the activity at 10 µM is 206%.
Next, `O=C1C(c2ccc(F)c(F)c2)=C(c2ccc(C(F)(F)F)cc2)c2ccc(OCCN3CCOCC3)cc21` [Example 34, 6-(2-morpholinoethoxy)-3-(4-(trifluoromethyl)phenyl)-2-(3,4-difluorophenyl)-1H-inden-1-one]: 78%; `O=C1C(c2cccnc2)=C(c2ccccc2)c2ccc(OCCN3CCNCC3)cc21` [Example 46, 6-(2-(piperazin-1-yl)ethoxy)-3-phenyl-2-(pyridin-3-yl)-1H-inden-1-one]: 107%.

Values taken from patent US8877747B2, “Indenone derivative and pharmaceutical composition comprising same” (Korea Research Institute of Chemical Technology, priority 2009, dated 2014).
